# Assay results as given in patent publication US11479551B2, “MTA-cooperative PRMT5 inhibitors” (Mirati Therapeutics, Inc., priority 2019, dated 2022).
# Like-named read-outs stand apart in the source and are kept apart here.
# Assays:
# [1] = tested on: PRMT5-dependent Symmetric Di-methyl Arginine signal in HCT116 homozygous MTAP knockout cells; experiment: SYM11 In-Cell Western, HCT116 MTAP knockout; format: cell-based
# [2] = tested on: PRMT5-dependent Symmetric Di-methyl Arginine signal in HCT116 parental cells; experiment: SYM11 In-Cell Western, HCT116 parental; format: cell-based; conditions: 4 days of treatment, SYM11/DRAQ5 ratio
# Procedure: (§1) Control samples were analyzed in parallel.
# Briefly, on Day 0, 2,000 HCT116 parental or HCT116 homozygous MTAP knockout cells were seeded in 96 well plates in McCoy's 5A supplemented with 10% fetal bovine serum and pen/strep and the cells were incubated overnight at 37° C. plus 5% CO2. The following day, cells were treated with DMSO vehicle control or a dose response of PRMT5 inhibitors, and incubated at 37° C. plus 5% CO^2 for four days.
# After 4 days of treatment, the cells were fixed by adding 50 μl of 4% paraformaldehyde solution to each well and the cells were incubated for 20 min at room temperature. The paraformaldehyde solution was removed, 150 μl of ice-cold methanol was added and the plate was placed −20° C. for 10 minutes. The methanol was removed, 150 μl of Odyssey Blocking buffer+0.05% Tween20 was added and the plate was incubated at room temperature with shaking for one hour.
# The primary SYM11 antibody solution was removed by aspiration and the wells were washed three consecutive times with phosphate buffered saline containing 0.1% Tween-20 (PBST).
# The secondary antibody solution was removed by aspiration and the wells were washed three consecutive times with PB ST.
# The SYM11 signal and the DRAQ5 signal were quantified using a Li-Cor Odyssey machine reading at […], respectively. The SYM11/DRAQ5 ratio was used to calculate the inhibition of Symmetric Dimethyl Arginine as percent of DMSO control.
# HCT116 parental cells = experiment: Proliferation assay (CellTiter-Glo, 10 days of treatment), HCT116 parental; format: cell-based
# Procedure: as §1
# Briefly, on Day 0, 250 HCT116 parental or HCT116 homozygous MTAP knockout cell were seeded in 96 well plates in McCoy's 5A supplemented with 10% fetal bovine serum and pen/strep and the cells were incubated overnight at 37° C. plus 5% CO2.
# The following day, cells were treated with DMSO vehicle control or a dose response of PRMT5 inhibitors and incubated at 37 C plus 5% CO2 for five days. On Day 6, the cells were trypsinized and split 1:10 into new 96-well plates with fresh medium containing the same concentration of PRMT5 inhibitor and incubated for an additional 5 days at 37° C. plus 5% CO^2.
# On Day 11, the viability of the cells was measured using a CTG assay kit (CellTiter-Glo; Promega cat.no G7573) in accordance with the manufacturer's instructions. The IC50 values for each compound after 10 days of treatment were calculated using GraphPad PRISM software.
# [3] = tested on: HCT116 homozygous MTAP knockout cells; experiment: Proliferation assay (CellTiter-Glo, 10 days of treatment), HCT116 MTAP knockout; format: cell-based; conditions: read-out: Proliferation HCT116MTAP_KO IC50
# Summary of the method: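 Viability of the CRISPR/Cas9 homozygous MTAP-knockout HCT116 line was read by CellTiter-Glo after 10 days of PRMT5 inhibitor exposure, with IC50 derived from the dose response. Compound was given the day after seeding and renewed at an identical concentration when cells were split 1:10 on day 6.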
# PRMT5/MEP50 complex = PRMT5/MEP50 complex (Homo sapiens (Human), UniProt O14744); experiment: PRMT5:MEP50 HotSpot Assay (full-length histone H2A substrate, plus and minus MTA); format: biochemical; conditions: in the presence of 2 μM MTA
# Summary of the method: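 Tritium incorporated into recombinant full-length histone H2A was counted by scintillation after stopped reactions were captured on filter paper.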
# [4] = HCT116 homozygous MTAP knockout cells, 4 days of treatment, SYM11/DRAQ5 ratio, read-out: In-cell-Western (SYM11) HCT116 MTAP_KO IC50
# [5] = Homo sapiens, HCT-116, 96 h, HCT116 homozygous MTAP knockout cells, 4 days of treatment, SYM11/DRAQ5 ratio, read-out: In-cell-Western (SYM11) HCT116 MTAP_KO IC50
# Sequence of PRMT5/MEP50 complex (O14744 2-637): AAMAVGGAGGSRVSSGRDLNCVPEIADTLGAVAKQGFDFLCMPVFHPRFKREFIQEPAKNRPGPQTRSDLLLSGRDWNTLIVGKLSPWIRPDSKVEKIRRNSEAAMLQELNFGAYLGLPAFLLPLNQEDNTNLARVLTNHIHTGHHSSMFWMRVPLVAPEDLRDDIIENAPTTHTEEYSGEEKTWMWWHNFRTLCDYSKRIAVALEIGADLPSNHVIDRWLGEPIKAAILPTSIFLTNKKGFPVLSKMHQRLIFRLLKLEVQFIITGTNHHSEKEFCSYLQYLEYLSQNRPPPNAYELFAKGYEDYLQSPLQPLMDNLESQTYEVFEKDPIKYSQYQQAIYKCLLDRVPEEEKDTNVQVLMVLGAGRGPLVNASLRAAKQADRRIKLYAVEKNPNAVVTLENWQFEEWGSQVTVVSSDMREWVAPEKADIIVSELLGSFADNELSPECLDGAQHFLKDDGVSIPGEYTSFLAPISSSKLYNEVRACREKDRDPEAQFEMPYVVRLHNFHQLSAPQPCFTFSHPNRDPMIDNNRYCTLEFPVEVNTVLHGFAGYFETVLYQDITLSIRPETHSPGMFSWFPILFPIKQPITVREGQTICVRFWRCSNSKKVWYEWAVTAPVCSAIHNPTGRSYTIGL
# Sequence of PRMT5/MEP50 complex (Q9BQA1 2-342 partner): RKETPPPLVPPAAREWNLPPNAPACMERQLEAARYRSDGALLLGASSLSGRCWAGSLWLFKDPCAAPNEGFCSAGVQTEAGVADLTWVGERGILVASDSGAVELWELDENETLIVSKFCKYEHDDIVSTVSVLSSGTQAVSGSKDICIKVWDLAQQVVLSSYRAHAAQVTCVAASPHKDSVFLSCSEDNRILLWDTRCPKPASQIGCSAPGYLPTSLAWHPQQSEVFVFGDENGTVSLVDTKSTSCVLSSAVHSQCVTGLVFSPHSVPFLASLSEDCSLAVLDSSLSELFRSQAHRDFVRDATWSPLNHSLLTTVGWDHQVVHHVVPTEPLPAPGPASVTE
"IC50 [1, 4] [µM]",IC50 [3] [µM],IC50 (PRMT5/MEP50 complex; read-out: IC50 + 2 μM MTA) [µM],IC50 (PRMT5/MEP50 complex; IC50 + 2 μM MTA) [µM],"IC50 [1, 5] [µM]","IC50 ([3]; Homo sapiens, HCT-116, 240 h) [µM]",SMILES,"IC50 ([2]; Homo sapiens, HCT-116, 96 h) [µM]","IC50 (HCT116 parental cells; Homo sapiens, HCT-116, 240 h) [µM]",IC50 [2] [µM],IC50 (HCT116 parental cells) [µM],"IC50 ([1]; Homo sapiens, HCT-116, 96 h, read-out: In-cell-Western (SYM11) HCT116 MTAP_KO IC50, HCT116 homozygous MTAP knockout cells, 4 days of treatment, SYM11/DRAQ5 ratio) [µM]"
0.042,0.125,,,,,"CC(N)c1n[nH]c(=O)c2ccc(-c3cnn(C)c3-c3ccc4ccccc4c3C#N)cc12 (single isomer, unassigned) [Example 9-5, 2-[4-[4-(1-aminoethyl)-1-oxo-2H-phthalazin-6-yl]-2-methyl-pyrazol-3-yl]naphthalene-1-carbonitrile]",> 1,6.44,,,
0.002,,0.038,,,,"Cn1ncc(-c2ccc3c(=O)[nH]nc(CN)c3c2)c1-c1c(F)cc2ccccc2c1C#N (single isomer, unassigned) [Example 16-1]",,,0.316,0.757,
,,,1.93,0.008,0.489,"CCOc1cccc(-c2c(-c3cc(C)c4c(=O)[nH]nc(CN)c4c3)cnn2C)c1C#N [Example 10-9, 2-(4-(4-(aminomethyl)-8-methyl-1-oxo-1,2-dihydrophthalazin-6-yl)-1-methyl-1H-pyrazol-5-yl)-6-ethoxybenzonitrile]",,9.82,,,

# Continued, molecule first:
SMILES,"IC50 [1, 4] [µM]",IC50 [3] [µM],IC50 (PRMT5/MEP50 complex; read-out: IC50 + 2 μM MTA) [µM],IC50 (PRMT5/MEP50 complex; IC50 + 2 μM MTA) [µM],"IC50 [1, 5] [µM]","IC50 ([3]; Homo sapiens, HCT-116, 240 h) [µM]","IC50 ([2]; Homo sapiens, HCT-116, 96 h) [µM]","IC50 (HCT116 parental cells; Homo sapiens, HCT-116, 240 h) [µM]",IC50 [2] [µM],IC50 (HCT116 parental cells) [µM],"IC50 ([1]; Homo sapiens, HCT-116, 96 h, read-out: In-cell-Western (SYM11) HCT116 MTAP_KO IC50, HCT116 homozygous MTAP knockout cells, 4 days of treatment, SYM11/DRAQ5 ratio) [µM]"
"CCc1c(Cl)ccc(-c2c(-c3ccc4c(=O)[nH]nc(CN)c4c3)cnn2C)c1C#N [Example 4-199, 6-(4-(4-(aminomethyl)-1-oxo-1,2-dihydrophthalazin-6-yl)-1-methyl-1H-pyrazol-5-yl)-3-chloro-2-ethylbenzonitrile]",,,,0.276,0.002,0.12,,8.85,,,
"CCc1c(OC)ccc(-c2c(-c3ccc4c(=O)[nH]nc(CN)c4c3)cnn2C)c1C#N [Example 4-201, 2-(4-(4-(aminomethyl)-1-oxo-1,2-dihydrophthalazin-6-yl)-1-methyl-1H-pyrazol-5-yl)-6-ethyl-5-methoxybenzonitrile]",,,,0.948,0.016,0.155,,> 10,,,
"Cn1ncc(-c2ccc3c(=O)[nH]nc(CN)c3c2)c1-c1c(F)cc2ccccc2c1C#N [Example 4-203, 2-(4-(4-(aminomethyl)-1-oxo-1,2-dihydrophthalazin-6-yl)-1-methyl-1H-pyrazol-5-yl)-3-fluoro-1-naphthonitrile]",,,,,0.002,0.019,0.903,1.21,,,
"COc1cccc2c(C#N)c(-c3c(-c4ccc5c(=O)[nH]nc(CN)c5c4)cnn3C)ccc12 [Example 4-204, 2-(4-(4-(aminomethyl)-1-oxo-1,2-dihydrophthalazin-6-yl)-1-methyl-1H-pyrazol-5-yl)-5-methoxy-1-naphthonitrile]",,,,,0.012,0.052,> 1,1.83,,,
"Cn1ncc(-c2ccc3c(=O)[nH]nc(CN)c3c2)c1-c1cc(C(F)(F)F)cc(OC2CC2)c1C#N [Example 4-209, 2-(4-(4-(aminomethyl)-1-oxo-1,2-dihydrophthalazin-6-yl)-1-methyl-1H-pyrazol-5-yl)-6-cyclopropoxy-4-(trifluoromethyl)benzonitrile]",,,,,0.01,0.059,> 1,4.67,,,
"Cn1ncc(-c2ccc3c(=O)[nH]nc(CN)c3c2)c1-c1cc(C#N)c2ccccc2c1F [Example 4-210, 3-(4-(4-(aminomethyl)-1-oxo-1,2-dihydrophthalazin-6-yl)-1-methyl-1H-pyrazol-5-yl)-4-fluoro-1-naphthonitrile]",,,,,0.008,0.416,> 1,1.36,,,
"Cn1ncc(-c2ccc3c(=O)[nH]nc(CN)c3c2)c1-c1c(Cl)cc2ccccc2c1C#N [Example 4-215, 2-(4-(4-(aminomethyl)-1-oxo-1,2-dihydrophthalazin-6-yl)-1-methyl-1H-pyrazol-5-yl)-3-chloro-1-naphthonitrile]",,,,,0.034,0.081,> 1,3.54,,,
"Cn1ncc(-c2ccc3c(=O)[nH]nc(CN)c3c2)c1-c1c(F)c(Cl)cc(OC2CC2)c1C#N [Example 4-230, 2-(4-(4-(aminomethyl)-1-oxo-1,2-dihydrophthalazin-6-yl)-1-methyl-1H-pyrazol-5-yl)-4-chloro-6-cyclopropoxy-3-fluorobenzonitrile]",,,,,,,> 1,1.89,,,0.006
